The data set relates to LPS pretreated mice. Kind of data set: Acute (24 hour) tolerance, tail flick, LPS pretreated mice. It is filed as in vivo. Particulars: for Tolerance: 24 hours. Here is the method:
Acute tolerance utilizing the radiant tail flick assay was measured by comparing the ED80-90 dose on day 1 to the same dose measured 24 hours later on the same mouse. For the LPS pretreated mice, no additional LPS was given to the mice for the acute tolerance test. […] However, the effect was less robust 72 hours after the initial LPS injection. Thus confirming that the acute tolerance test was accurate for the LPS pretreated mice.

This is an account of results in patent publication US9981043B2, “Analgesic conjugates” (priority 2013, dated 2018).

Entries after “also recorded” stand apart in the source; their conditions may differ.

For the compound `Cc1cccc(C#Cc2cccc(OCCNC(=O)COCC(=O)NCCCCCNC(=O)COCC(=O)N[C@H]3CC[C@@]4(O)C5Cc6ccc(O)c7c6[C@@]4(CCN5C)[C@H]3O7)c2)n1` [Compound 4c, N-((4aS,7S,7aR,12bS)-4a,9-dihydroxy-3-methyl-2,3,4,4a,5,6,7,7a-octahydro-1H-4,12-methanobenzofuro[3,2-e]isoquinolin-7-yl)-2-((1-(3-((6-methylpyridin-2-yl)ethynyl)phenoxy)-4,8,16-trioxo-6-oxa-3,9,15-triazaheptadecan-17-yl)oxy)acetamide], for the setting “i.c.v., 24 hour”, the “% MPE remaining in 24 hour tolerance test” value was “Still was 40% MPE”. The Tolerance (i.c.v.) was found to be 24 hour tolerance and the Tolerance entry (i.t.) is reported as “without tolerance; also recorded: No Tolerance”.
